Here are results for 19 molecules from PubChem BioAssay AID328 (DTP/NCI, 2004).

In the experiment the test system is BDF1 mice, P388 leukemia ip, median survival T/C. Nature of the experiment: NCI In Vivo Anticancer Drug Screen. Data for tumor model P388 Leukemia (intraperitoneal) in B6D2F1 (BDF1) mice. The note with it: endpoint: median survival time, higher = longer survival. An outline of the steps:
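Each value expresses how treatment altered survival: treated-mouse outcome over vehicle-mouse outcome, both groups bearing the transplanted tumour.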

[1] abbreviates: dose: 50.0 mg/kg/injection, schedule: Q01DX009 (ip), vehicle: saline with Tween-80.
[2] abbreviates: dose: 100.0 mg/kg/injection, schedule: Q01DX009 (ip), vehicle: saline with Tween-80.
The mark [3] stands for this setting: dose: 100.0 mg/kg/injection, schedule: Q04DX003 (ip), vehicle: Klucel (hydroxypropylcellulose) (HPC).
Where [4] appears, read: dose: 200.0 mg/kg/injection, schedule: Q04DX003 (ip), vehicle: Klucel (hydroxypropylcellulose) (HPC).
[5] abbreviates: dose: 400.0 mg/kg/injection, schedule: Q04DX003 (ip), vehicle: Klucel (hydroxypropylcellulose) (HPC).
Setting [6] is: dose: 100.0 mg/kg/injection, schedule: Q01DX009 (ip), vehicle: Klucel (hydroxypropylcellulose) (HPC).
The mark [7] stands for this setting: dose: 200.0 mg/kg/injection, schedule: Q01DX009 (ip), vehicle: Klucel (hydroxypropylcellulose) (HPC).
[8] abbreviates: dose: 12.5 mg/kg/injection, schedule: Q01DX009 (ip), vehicle: saline with Tween-80.
[9] abbreviates: dose: 25.0 mg/kg/injection, schedule: Q01DX009 (ip), vehicle: saline with Tween-80.
[10] abbreviates: dose: 100.0 mg/kg/injection, schedule: Q04DX003 (ip), vehicle: saline sonified.
[11] abbreviates: dose: 100.0 mg/kg/injection, schedule: Q01DX001 (ip), vehicle: Klucel (hydroxypropylcellulose) (HPC).
The mark [12] stands for this setting: dose: 200.0 mg/kg/injection, schedule: Q01DX001 (ip), vehicle: Klucel (hydroxypropylcellulose) (HPC).
The mark [13] stands for this setting: dose: 400.0 mg/kg/injection, schedule: Q01DX001 (ip), vehicle: Klucel (hydroxypropylcellulose) (HPC).
Where [14] appears, read: dose: 400.0 mg/kg/injection, schedule: Q01DX009 (ip), vehicle: Klucel (hydroxypropylcellulose) (HPC).

Several values for one entry are separate records, joined by “and”; a condition that tells them apart may be missing. Equal entries are not always repeated. Inconclusive results and toxic doses are left out.

Consider `CCCCCCCCNCCCCCCCC`, for which the T/C (dose: 9.0 mg/kg/injection, schedule: Q01DX009 (ip), vehicle: gum acacia) is 108 % of control and 113 % of control; the T/C (dose: 9.0 mg/kg/injection, schedule: Q04DX003 (ip), vehicle: gum acacia) was 100 % of control; the T/C (dose: 18.0 mg/kg/injection, schedule: Q01DX009 (ip), vehicle: gum acacia) was 95 % of control and 108 % of control; the T/C (dose: 18.0 mg/kg/injection, schedule: Q04DX003 (ip), vehicle: gum acacia) was 95 % of control; the T/C (dose: 37.0 mg/kg/injection, schedule: Q01DX009 (ip), vehicle: gum acacia) was 104 % of control and 116 % of control; the T/C (dose: 37.0 mg/kg/injection, schedule: Q04DX003 (ip), vehicle: gum acacia) was 100 % of control.

In the case of `C/C(=N\NC(=O)C(=O)N/N=C(\C)c1ccccc1)c1ccccc1`, the T/C under setting [1] was 96 % of control and the T/C under setting [2] was 91 % of control.

Regarding `Cc1ccc(NC(=O)c2ccccc2C(=O)O)cc1Cl`, the T/C reads like this: under setting [3], 95 % of control; under setting [4], 95 % of control; under setting [5], 91 % of control.

With `C=CC(C)(C)C12CC3C(=O)N/C(=C\c4cnc[nH]4)C(=O)N3C1Nc1ccccc12` (stereo not drawn), the T/C reads like this: (dose: 50.0 mg/kg/injection, schedule: Q01DX009 (ip), vehicle: Klucel (hydroxypropylcellulose) (HPC)) 94 % of control; under setting [6], 94 % of control; under setting [7], 92 % of control.

Consider `COc1cccc(N2C(=O)CSC2=S)c1`, for which the T/C is 91 % of control under setting [2] and 100 % of control (dose: 200.0 mg/kg/injection, schedule: Q01DX009 (ip), vehicle: saline with Tween-80).

Turning to `C=CCOCC(O)CN(CCCC)CCCC` (stereo not drawn), the T/C under setting [8] was 95 % of control, the T/C under setting [9] was 95 % of control and the T/C under setting [1] was 105 % of control.

As for `CC1(C)N=C(N)N=C(N)N1c1ccc(CCC(=O)Nc2ccc(S(=O)(=O)F)cc2)cc1`, the T/C by setting is: (dose: 0.88 mg/kg/injection, schedule: Q01DX009 (ip), vehicle: saline with Tween-80) 108 % of control; (dose: 1.32 mg/kg/injection, schedule: Q01DX009 (ip), vehicle: saline with Tween-80) 112 % of control; (dose: 2.0 mg/kg/injection, schedule: Q01DX009 (ip), vehicle: saline with Tween-80) 116 % of control; under setting [8], 150 % of control; under setting [9], 163 % of control; (dose: 44.0 mg/kg/injection, schedule: Q04DX003 (ip), vehicle: saline sonified) 122 % of control. For the same molecule, the T/C by setting is: under setting [1], 159 % of control; (dose: 66.0 mg/kg/injection, schedule: Q04DX003 (ip), vehicle: saline sonified) 111 % of control; (dose: 100.0 mg/kg/injection, schedule: Q01DX009 (ip), vehicle: saline sonified) 240 % of control; under setting [10], 111 % of control; (dose: 150.0 mg/kg/injection, schedule: Q04DX003 (ip), vehicle: saline sonified) 122 % of control; (dose: 200.0 mg/kg/injection, schedule: Q01DX009 (ip), vehicle: saline sonified) 95 % of control. Further, under “dose: 400.0 mg/kg/injection, schedule: Q01DX009 (ip), vehicle: saline sonified”, the T/C was 90 % of control.

Take `CC(=O)N1c2ccccc2Sc2ccc3ccc(C(=O)CCl)cc3c21`: the T/C under setting [2] was 153 % of control.

Consider `CCC(C)(C)c1ccc(OCCOS(=O)(=O)c2ccc(C)cc2)cc1`, for which the T/C is 95 % of control (dose: 12.5 mg/kg/injection, schedule: Q04DX003 (ip), vehicle: saline); 100 % of control (dose: 25.0 mg/kg/injection, schedule: Q04DX003 (ip), vehicle: saline); 91 % of control (dose: 50.0 mg/kg/injection, schedule: Q04DX003 (ip), vehicle: saline).

Turning to `O=C(O)CCCCCNC(=O)c1ccccc1`, the T/C is 118 % of control (dose: 50.0 mg/kg/injection, schedule: Q04DX003 (ip), vehicle: Klucel (hydroxypropylcellulose) (HPC)); 100 % of control under setting [11]; 100 % of control under setting [3]; 104 % of control under setting [12]; 100 % of control under setting [4]; 100 % of control under setting [13].

Consider `COc1ccc(C(C)=O)cc1OCc1ccccc1`, for which the T/C reads like this: (dose: 50.0 mg/kg/injection, schedule: Q01DX009 (ip), vehicle: water) 114 % of control; (dose: 100.0 mg/kg/injection, schedule: Q01DX009 (ip), vehicle: water) 109 % of control; (dose: 100.0 mg/kg/injection, schedule: Q04DX003 (ip), vehicle: water) 102 % of control; (dose: 200.0 mg/kg/injection, schedule: Q01DX009 (ip), vehicle: water) 119 % of control; (dose: 200.0 mg/kg/injection, schedule: Q04DX003 (ip), vehicle: water) 102 % of control; (dose: 400.0 mg/kg/injection, schedule: Q01DX009 (ip), vehicle: water) 111 % of control. Also, for the setting “dose: 400.0 mg/kg/injection, schedule: Q04DX003 (ip), vehicle: water”, the T/C was 111 % of control.

In the case of `CC1CC(C)(C)N=C(C(C)(C)c2ccccc2)O1` (stereo not drawn), the T/C was 100 % of control (dose: 50.0 mg/kg/injection, schedule: Q04DX003 (ip), vehicle: saline sonified); 100 % of control under setting [10]; 90 % of control (dose: 200.0 mg/kg/injection, schedule: Q04DX003 (ip), vehicle: saline sonified).

Consider `CCOC(=O)C(C(=O)OCC)C1c2ccccc2C(=NO)c2ccccc21` (stereo not drawn), for which the T/C reads like this: under setting [6], 100 % of control; under setting [3], 112 % of control; under setting [7], 109 % of control; under setting [4], 104 % of control; under setting [14], 109 % of control; under setting [5], 91 % of control.

As for `CC12C=CC(=O)C=C1CCC1C2C(O)CC2(C)C1CCC2(O)C(=O)COC(=O)Cc1ccc(N(CCCl)CCCl)cc1` (stereo not drawn), the T/C is 97 % of control (dose: 3.5 mg/kg/injection, schedule: Q01DX009 (ip), vehicle: saline); 97 % of control (dose: 7.0 mg/kg/injection, schedule: Q01DX009 (ip), vehicle: saline); 118 % of control (dose: 14.0 mg/kg/injection, schedule: Q01DX009 (ip), vehicle: saline).

In the case of `Cc1ccccc1C1c2ccccc2C(=O)c2cccc(C)c21` (stereo not drawn), the T/C is 104 % of control under setting [11]; 105 % of control under setting [6]; 100 % of control under setting [3]; 109 % of control under setting [12]; 100 % of control under setting [7]; 95 % of control under setting [4]. Also, the T/C under setting [13] is 100 % of control, the T/C under setting [14] was 100 % of control and the T/C under setting [5] was 108 % of control.

`CS(C)=O`: the T/C is 100 % of control (dose: 200.0 mg/kg/injection, schedule: Q01DX009 (ip), vehicle: saline); 100 % of control (dose: 400.0 mg/kg/injection, schedule: Q01DX009 (ip), vehicle: saline); 100 % of control (dose: 600.0 mg/kg/injection, schedule: Q01DX009 (ip), vehicle: saline); 95 % of control (dose: 800.0 mg/kg/injection, schedule: Q01DX009 (ip), vehicle: saline).

As to `O=C(Nc1ccc(Br)cc1)c1cc(Br)ccc1O`, the T/C (dose: 50.0 mg/kg/injection, schedule: Q01DX010 (ip), vehicle: steriod suspending solution) is 104 % of control; the T/C (dose: 100.0 mg/kg/injection, schedule: Q01DX010 (ip), vehicle: steriod suspending solution) was 100 % of control; the T/C (dose: 200.0 mg/kg/injection, schedule: Q01DX010 (ip), vehicle: steriod suspending solution) was 100 % of control; the T/C (dose: 400.0 mg/kg/injection, schedule: Q01DX010 (ip), vehicle: steriod suspending solution) is 109 % of control.

As to `O=c1c2ccccc2c2nc3ccc4c(=O)c5ccccc5c5nc6ccc1c2c6c3c45`, the T/C was 100 % of control (dose: 50.0 mg/kg/injection, schedule: Q01DX005 (ip), vehicle: saline with Tween-80) and 100 % of control (dose: 100.0 mg/kg/injection, schedule: Q01DX005 (ip), vehicle: saline with Tween-80).

For `O=[N+]([O-])c1ccc(-c2ncc3cnccn23)cc1`, the T/C was 111 % of control (dose: 100.0 mg/kg/injection, schedule: Q04DX003 (ip), vehicle: saline); 97 % of control (dose: 200.0 mg/kg/injection, schedule: Q04DX003 (ip), vehicle: saline); 102 % of control (dose: 400.0 mg/kg/injection, schedule: Q04DX003 (ip), vehicle: saline).
